Test results as given in patent US20140155341A1, “USE OF SS'-DIMETHYL-GLIOTOXIN AS […] OF P[…] BY GLIOTOXIN-PRODUCING FUNGI OR THEIR DERIVATIVES” (priority 2011, published 2014).

Legend:
blood cells = assay: Recovery of GT and bmGT from human whole blood (influence of blood cells); assay type: in vitro ADME; conditions: for lost in the blood cells: added to total blood, plasma levels analysed after 10 minutes
Method: (§1) […] Later, the blood was centrifuged at 2000 revolutions per minute (rpm) during 15 minutes, the serum was recovered and GT and bmGT were extracted and analysed as described above.
(§2) The samples were separated using a horizontal developing chamber (Camag) by facing the plates downwards. n-heptane (C7), MeOH, tetrahydrofuran (THF) and acetonitrile (ACN) (HPLC grade, Scharlau, Barcelona, Spain) were used as solvents. The separation and quantification of GT and bmGT was performed with a mixture of THF:C7:ACN (40:58:2) (v:v:v) during 3 min.
(§3) Detection and quantification by UV spectroscopy, a TLC3 scanner was used (Camag) in UV mode whereby a UV scanning densitometry was carried out to determine GT and bmGT (wavelength (λ)=280 and 367 nm). A linear scan with a beam of 4 mm×0.2 mm was used in both cases. The area under the peaks was quantified and saved using Camag's software.
(§4) In parallel, the influence of the presence of blood cells on the recovery of GT and bmGT was analysed. Unlike the serum and plasma, less than 10% of GT was recovered from the whole blood, even when large quantities of GT (20 ug) were added (Table 1). […] The precision of this determination was as high as in the serum or plasma with RSD values of between 9-16%. Aliquots of blood and plasma from the same unit of blood were used simultaneously to perform these determinations, therefore, the only, but crucial, difference between both fluids is the presence of red and white cells in the blood.

[1] = as above; assay type: in vitro ADME; conditions: whole blood, human blood, blood centrifuged before extraction to eliminate cellular fraction; for recovery at 30 min, 5 µg/mL: 5 μg added to 1 ml; for recovery at 30 min, 20 µg/mL: 20 μg added to 1 ml
Method: as §1, §2, §3, §4

[2] = disulfide bond blocked by methylation; cited from earlier work

Row | Structure (SMILES) | lost in the blood cells (blood cells) | recovery at 30 min, 5 µg/mL [1] | recovery at 30 min, 20 µg/mL [1] | biological activity [2] | recovered from the whole blood (blood cells; whole blood, even when large quantities (20 ug) were added)
1 | CS[C@]1(CO)C(=O)N2C3C(=CC=C[C@@H]3O)C[C@@]2(SC)C(=O)N1C (some centres unmarked) [bmGT] | 10-15% | 73.2% | 87.2% | biologically inactive | 
2 | CN1C(=O)[C@]23CC4=CC=C[C@H](O)[C@H]4N2C(=O)[C@@]1(CO)SS3 [GT, Gliotoxin] | 90% | 8.44% | 6.56% |  | less than 10%
